Results taken from BindingDB's records for doi:10.1016/j.bmc.2010.03.023 (Swedish University Agricultural Sciences, 2010).
pIC50: −log10 of the molar value.

Columns and labels:
Thymidine kinase = target: T1, Thymidine kinase (Ureaplasma parvum serovar 3 (strain ATCC 700970), UniProt Q9PPP5); assay: Inhibition of Ureaplasma parvum thymidine kinase by liquid scintillation counting
T1 sequence (Q9PPP5 whole entry): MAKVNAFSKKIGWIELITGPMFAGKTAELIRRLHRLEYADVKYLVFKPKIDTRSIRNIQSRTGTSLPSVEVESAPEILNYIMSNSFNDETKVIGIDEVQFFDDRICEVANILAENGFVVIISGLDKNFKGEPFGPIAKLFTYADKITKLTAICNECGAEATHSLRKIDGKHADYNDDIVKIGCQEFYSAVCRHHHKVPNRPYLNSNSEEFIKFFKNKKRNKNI

[1] = target: T2, Thymidine kinase, cytosolic (Homo sapiens, UniProt P04183); assay: Inhibition of human TK1 by liquid scintillation counting
T2 sequence (P04183 whole entry): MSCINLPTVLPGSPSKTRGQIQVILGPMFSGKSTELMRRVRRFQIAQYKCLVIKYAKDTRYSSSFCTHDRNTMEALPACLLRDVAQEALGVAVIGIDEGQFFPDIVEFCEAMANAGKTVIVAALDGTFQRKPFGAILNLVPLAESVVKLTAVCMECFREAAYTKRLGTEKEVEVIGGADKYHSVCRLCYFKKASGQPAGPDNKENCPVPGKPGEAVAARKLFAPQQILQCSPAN

| pIC50 (Thymidine kinase) | pIC50 [1] | Compound |
| --- | --- | --- |
| 3.92 | – | Cc1cn([C@H]2C[C@H](n3cc(CCc4ccccc4)nn3)[C@@H](CO)O2)c(=O)[nH]c1=O [3'-(4-(2-Phenyl-ethyl)-1,2,3-triazole-1-yl)-2'-deoxythymidine] |
| 3.50 | 3.94 | Cc1cn([C@H]2C[C@H](n3cc(C(C)(C)C)nn3)[C@@H](CO)O2)c(=O)[nH]c1=O [3'-(4-tert-Butyl-1,2,3-triazol-1-yl)-3'-deoxythymidine] |
| 3.70 | – | Cc1cn([C@H]2C[C@H](n3cc(-c4ccccc4)nn3)[C@@H](CO)O2)c(=O)[nH]c1=O [3'-Deoxy-3'-(4-phenyl-1,2,3-triazol-1-yl)-beta-D-thymidine] |
| 3.68 | – | Cc1cn([C@H]2C[C@H](n3cc(-c4ccccn4)nn3)[C@@H](CO)O2)c(=O)[nH]c1=O [3'-Deoxy-3'-(4-pyridin-2-yl-1,2,3-triazol-1-yl)-beta-D-thymidine] |
